# Molecular target: HtpG (Escherichia coli, UniProt P0A6Z3)
# Test: SAXS radius of gyration titration, closed-state accumulation
# Format: binding
# Sequence of HtpG (P0A6Z3 whole entry): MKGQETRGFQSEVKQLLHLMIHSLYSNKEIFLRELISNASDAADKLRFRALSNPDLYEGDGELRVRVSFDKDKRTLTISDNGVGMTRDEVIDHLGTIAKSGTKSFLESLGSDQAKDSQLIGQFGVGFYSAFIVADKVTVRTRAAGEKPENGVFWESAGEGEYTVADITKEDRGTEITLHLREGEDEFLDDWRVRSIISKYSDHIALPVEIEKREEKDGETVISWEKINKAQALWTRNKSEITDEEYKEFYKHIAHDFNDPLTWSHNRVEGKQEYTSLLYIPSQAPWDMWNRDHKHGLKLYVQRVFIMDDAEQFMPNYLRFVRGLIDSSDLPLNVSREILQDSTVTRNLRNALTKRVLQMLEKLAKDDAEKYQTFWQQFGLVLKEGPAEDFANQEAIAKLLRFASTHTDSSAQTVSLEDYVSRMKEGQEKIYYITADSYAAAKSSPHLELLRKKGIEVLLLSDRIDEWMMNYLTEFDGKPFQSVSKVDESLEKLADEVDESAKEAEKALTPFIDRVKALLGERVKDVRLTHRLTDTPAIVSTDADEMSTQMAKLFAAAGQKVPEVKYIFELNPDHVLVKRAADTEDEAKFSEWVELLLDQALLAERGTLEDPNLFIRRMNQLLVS
smiles,measurement,value
Nc1ncnc2c1ncn2[C@@H]1O[C@H](COP(=O)(O)OP(=O)(O)NP(=O)(O)O)[C@@H](O)[C@H]1O [AMPPNP],Kd,12 to 15 µM

# From article PMC5610941 (Journal of molecular biology, 2017)
